According to patent US6060608A, “Analogs of CC-1065 and the duocarmycins” (The Scripps Research Institute, priority 1999, dated 2000):

Key:
L1210 = test: In vitro cytotoxic activity, L1210; details: for cytotoxic activity, ring opened precursor 115 versus cyclopropane 116: L1210; for IC50: Mus musculus, L1210, read-out: cytotoxic activity IC50; for relative cytotoxic potency of natural versus unnatural enantiomers: N-BOC derivatives
w794 duplex DNA = test: DNA alkylation selectivity and efficiency within w794 DNA, thermally-induced strand cleavage and PAGE; format: biochemical, SV40; details: for DNA alkylation less efficient than 1 or 305: 25° C., 24 h
Description: DNA Alkylation Selectivity and Efficiency. The DNA alkylation properties of the agents were examined within w794 duplex DNA, a 144 base-pair segment of duplex DNA for which comparative results are available for related agents. The alkylation site identification and the assessment of the relative selectivity among the available sites were obtained by thermally-induced strand cleavage of the singly 5' end-labeled duplex DNA after exposure to the agents. Following treatment of the end-labeled duplex DNA with a range of agent concentrations, the unbound agent was removed by EtOH precipitation of the DNA. Redissolution of the DNA in aqueous buffer, thermolysis (100° C., 30 min) to induce strand cleavage at the sites of DNA alkylation, denaturing high resolution polyacrylamide gel electrophoresis (PAGE) adjacent to Sanger dideoxynucleotide sequencing standards, and autoradiography led to identification of the DNA cleavage and alkylation sites. The DNA alkylation reaction selectivities observed under the incubation conditions for the agents detailed herein have proven identical to the alkylation selectivities observed with shorter or extended reaction periods or when the reactions were conducted at different temperatures (37 or 4° C., 0.5-7 d). As discussed below, the rates and efficiencies but not final relative efficiencies of DNA alkylation were altered by changing the reaction temperatures.
DNA Alkylation Properties. […] The DNA alkylation reaction was examined within w794 DNA for which comparative results are available for past agents. The alkylation site identification was obtained by thermal strand cleavage of the singly 5' end-labeled duplex DNA after exposure to the agents. Following treatment of the labeled DNA with a range of agent concentrations, the unbound agent was removed by EtOH precipitation of the DNA. Redissolution of the DNA in aqueous buffer, thermolysis at 100° C. (30 min) to induce depurination and strand cleavage at the adenine N3 or guanine N3 minor groove alkylation sites, denaturing high resolution PAGE adjacent to Sanger sequencing standards and autoradiography provided the DNA cleavage and alkylation sites.
DNA Alkylation Studies: selectivity and Efficiency. General procedures, the preparation of singly ^32 P 5' end-labeled double stranded DNA, the agent binding studies, gel electrophoresis, and autoradiography were conducted according to standard procedures. Eppendorf tubes containing the 5' end-labeled DNA (9 μL) in TE buffer (10 mM Tris, 1 mM EDTA, pH 7.5) were treated with the agent in DMSO (1 μL at the specified concentration). The solution was mixed by vortexing and brief centrifugation and subsequently incubated at 4 or 25° C. for 24 h (natural enantiomers) and 25 or 37° C. (unnatural enantiomers) for 72 h. The covalently modified DNA was separated from unbound agent by EtOH precipitation and resuspended in TE buffer (10 μL). The solution of DNA in an Eppendorf tube sealed with parafilm was warmed at 100° C. for 30 min to induce cleavage at the alkylation sites, allowed to cool to 25° C. and centrifuged. Formamide dye (0.03% xylene cyanol FF, 0.03% bromophenol blue, 8.7% Na2 EDTA 250 mM) was added (5 μL) to the supernatant. Prior to electrophoresis, the sample was denatured by warming at 100° C. for 5 min, placed in an icebath, and centrifuged, and the supernatant (3 μL) was loaded directly onto the gel. Sanger dideoxynucleotide sequencing reactions were run as standards adjacent to the reaction samples. Polyacrylamide gel electrophoresis (PAGE) was run on an 8% sequencing gel under denaturing conditions (8 M urea) in TBE buffer (100 mM Tris, 100 mM boric acid, 0.2 mM Na2 EDTA) followed by autoradiography.
DNA Alkylation of w794 DNA. Eppendorf tubes containing the 5'-end labeled DNA (9 μL) in TE buffer (10 mM Tris, 1 mM EDTA, pH 7.2) were treated with the agent in DMSO (1 μL at the specified concentration). […]

[1] = In vitro cytotoxic activity (cell line not given); format: cell-based; details: for less potent than ent-(-)-1: unnatural enantiomers
[2] = Aqueous solvolysis reactivity followed by UV; format: physicochemical
Experimental: The reactivity of 217-219 was assessed by following the solvolysis spectrophotometrically by UV at both pH 3 (50% CH3 OH-buffer, buffer=4:1:20 (v/v/v) 0.1 M citric acid, 0.2 M Na2 HPO4, H2 O) and pH 7 (1:1 H2 O--CH3 OH) measuring both the disappearance of the long-wavelength absorption band of the F2 CBI chromophore and the appearance of a short-wavelength absorption band attributable to the ring open products (FIG. 31).
Aqueous Solvolysis Reactivity. pH 3: N-BOC-CCBI (25, 100 μg) was dissolved in CH3 OH (1.5 mL) and mixed with pH 3 aqueous buffer (1.5 mL). The buffer contained 4:1:20 (v:v:v) 0.1 M citric acid, 0.2 M Na2 HPO4 and H2 O, respectively. The solvolysis solution was sealed and kept at 25° C. protected from light. The UV spectrum was measured at regular intervals every 2 h during the first day, every 12 h for another week, and every 24 h for an additional week. The decrease in the long-wavelength absorption at 322 nm and the increase in the short-wavelength absorption at 268 nm were monitored, FIG. 1.
pH 2: Samples of 25 (100 μg) and 26 (50 μg) were dissolved in CH3 OH (1.5 mL) and the solutions were mixed with aqueous buffer (pH 2.05, 1.5 mL). The buffer contained 4:1:20 (v:v:v) 1.0 M citric acid, 0.2 M Na2 HPO4, and H2 O, respectively. Immediately after mixing, the UV spectra of the solutions were measured against a reference solution containing CH3 OH (1.5 mL) and the aqueous buffer (1.5 mL) and these readings were used for the initial absorbance values. The solutions were stoppered, protected from the light, and allowed to stand at 25° C. UV spectra were recorded at regular intervals until constant values were obtained for the long and short wavelength absorbances. The solvolysis rate constants were determined from the slope of the lines obtained from linear least squares treatment of plots of ln[(Af -Ai)/(Af -A)] versus time using the short wavelength measurements for 25 and long wavelength measurements for 26).

[3] = natural enantiomers, 37° C., 72 h

## CCOC(=O)CCC(=O)N1CC2CC23C1=CC(=O)c1ccccc13 (stereo not shown) [compound 116, N^2-(4-ethoxy-1,4-dioxobutyl)-1,2,9,9a-tetrahydrocyclopropa[c]benz[e]indole-4-one]
L1210
  cytotoxic activity, ring opened precursor 115 versus cyclopropane 116: no distinctions were observed
  IC50: 5 to 6 nM
w794 duplex DNA; natural enantiomer
  more effective at alkylating DNA than N-BOC-CBI (123): 10-100 ×

## COC(=O)c1cc2c([nH]1)C(=O)C=C1N(C(=O)c3cc4ccccc4[nH]3)CC3CC123 (single isomer, unassigned) [compound 304]
[1]; natural enantiomers
  reduction in cytotoxic potency relative to duocarmycin SA: 6.5 -fold
[1]
  less potent than ent-(-)-1: 13-18 ×
w794 duplex DNA; natural enantiomers
  DNA alkylation less efficient than 1 or 305: 20 ×

## O=C1C=C2NCC3C(F)(F)C23c2ccccc21 (stereo not shown) [compound 218, 9,9-difluoro-1,2,9,9a-tetrahydrocyclopropa[c]benzo[e]indol-4-one]
[2]
  solvolysis reactivity relative to corresponding CBI agent lacking the two fluorines: approximately 220 ×
[2]; 50% ch3oh-buffer, pH 3
  half-life: 4.2 h
[2]; pH 3, 50% CH3OH-buffer
  solvolysis rate constant k: 4.54e-05 s⁻¹

## CC(C)(C)OC(=O)N1CC2CC23C1=CC(=O)c1ccccc13 (stereo not shown) [N-BOC-CBI, reference compound]
[2]
  solvolysis stability/reactivity: stable
[2]; 50% ch3oh-buffer, pH 3
  half-life: 133 h
[2]; pH 3, 50% CH3OH-buffer
  solvolysis rate constant k: 1.45e-06 s⁻¹
L1210
  relative cytotoxic potency of natural versus unnatural enantiomers: 11 ×
w794 duplex DNA; FIG. 24, 37° C., 48 h
  concentration at which both enantiomers alkylate DNA: 10^-2 M

## COC(=O)c1cc2c([nH]1)C(=O)C=C1N(C(=O)c3cc4ccc(OC)cc4[nH]3)CC3CC123 (single isomer, unassigned) [compound 306]
[1]
  cytotoxic activity relative to duocarmycin SA or 304 (words): intermediate activity
  properties relative to duocarmycin SA or 304: properties more analogous to 304
  less potent than ent-(-)-1: 13-18 ×
w794 duplex DNA; natural enantiomers
  DNA alkylation less efficient than 1 or 305: 5-10 ×

## N#Cc1ccc2c(c1)C13CC1CNC3=CC2=O (stereo not shown) [compound 26, 7-Cyano-1,2,9,9a-tetrahydrocyclopropa[c]benz[e]indol-4-one]
[2]; ch3oh-buffer 1:1, pH 2
  half-life: 91.5 h

## CC(C)(C)OC(=O)N1CC2C(F)(F)C23C1=CC(=O)c1ccccc13 (stereo not shown) [compound 219]
[2]
  solvolysis stability/reactivity: No substantial distinction in the reactivity of 217 and 219 was observed
[2]; 1:1 h2o-ch3oh, pH 7
  half-life: 2.33 h
[2]; 50% ch3oh-buffer, pH 3
  half-life: 0.26 h
[2]; pH 3, 50% CH3OH-buffer
  solvolysis rate constant k: 0.000705 s⁻¹
[2]; pH 7, 1:1 H2O-CH3OH
  solvolysis rate constant k: 8.27e-05 s⁻¹

## N#Cc1ccc2c(O)cc3c(c2c1)C(CCl)CN3C(=O)c1cc2cc(NC(=O)c3cc4ccccc4[nH]3)ccc2[nH]1 (stereo not shown) [compound 36]
L1210
  cytotoxic activity of seco precursors versus cyclopropane containing agents: indistinguishable from the cyclopropane containing agents

## N#Cc1ccc2c(O)cc3c(c2c1)C(CCl)CN3C(=O)c1cc2c3c(ccc2[nH]1)N(C(N)=O)CC3 (stereo not shown) [compound 38]
L1210
  cytotoxic activity of seco precursors versus cyclopropane containing agents: indistinguishable from the cyclopropane containing agents

## CCOC(=O)CCC(=O)N1CC(CCl)c2c1cc(O)c1ccccc21 (stereo not shown) [compound 115, 1-Chloromethyl-3-(4-ethoxy-1,4-dioxobutyl)-5-hydroxy-1,2-dihydro-3H-benz[e]indole]
L1210
  cytotoxic activity, ring opened precursor 115 versus cyclopropane 116: no distinctions were observed
  IC50: 5 to 6 nM

## COc1ccc2c(c1)C13CC1CN(C(=O)OC(C)(C)C)C3=CC2=O (stereo not shown) [N-BOC-MCBI, reference compound]
L1210
  relative cytotoxic potency of natural versus unnatural enantiomers: 2 ×
w794 duplex DNA; [3]
  concentration at which DNA alkylation is detectable: 10^-3 M
  concentration at which DNA alkylation is prominent: 10^-2 M

## COC(=O)c1cc2c([nH]1)C(=O)C=C1N(C(=O)c3cc4cc(OC)ccc4[nH]3)CC3CC123 (single isomer, unassigned) [ent-(-)-305]
[1]
  cytotoxic activity relative to duocarmycin SA or 304 (words): more closely approached the full activity of ent-(-)-1

## COc1cc2cc(C(=O)N3CC(CCl)c4c3cc(O)c3ccc(C#N)cc43)[nH]c2c(OC)c1OC (stereo not shown) [compound 34]
L1210
  cytotoxic activity of seco precursors versus cyclopropane containing agents: indistinguishable from the cyclopropane containing agents

## CC(=O)N1CC2C(F)(F)C23C1=CC(=O)c1ccccc13 (stereo not shown) [compound 217]
[2]
  solvolysis reactivity relative to corresponding CBI agent lacking the two fluorines: 500 ×
  solvolysis stability/reactivity: No substantial distinction in the reactivity of 217 and 219 was observed

## CC(C)(C)OC(=O)N1CC(CCl)c2c1cc(O)c1ccc(C#N)cc21 (stereo not shown) [compound 23, 3-(tert-Butyloxycarbonyl)-1-(chloromethyl)-8-cyano-5-hydroxy-1,2-dihydro-3H-benz[e]indole]
L1210
  cytotoxic activity of seco precursors versus cyclopropane containing agents: indistinguishable from the cyclopropane containing agents

## COC(=O)c1cc2c([nH]1)C(=O)C=C1N(C(=O)c3cc4cccc(OC)c4[nH]3)CC3CC123 (single isomer, unassigned) [compound 307]
[1]
  cytotoxic activity relative to duocarmycin SA or 304 (words): equipotent with (+)-304
  properties relative to duocarmycin SA or 304: properties more analogous to 304
  less potent than ent-(-)-1: 13-18 ×
w794 duplex DNA; natural enantiomers
  DNA alkylation less efficient than 1 or 305: 5-10 ×
